# From patent US8247556B2, “Method for preparing 6-substituted-7-aza-indoles” (Amgen Inc., priority 2005, dated 2012)
# Tested on: VEGF-stimulated HUVEC proliferation (Human Umbilical Vein Endothelial cells)
# Assay: HUVEC Proliferation Assay
# Type: cell-based
# Settings: VEGF 50 ng/mL, 72 h, CyQuant fluorescent dye, read-out: inhibited VEGF-stimulated HUVEC proliferation at a level
# Protocol: Human Umbilical Vein Endothelial cells are purchased from Clonetics, Inc., as cryopreserved cells harvested from a pool of donors. These cells, at passage 1, are thawed and expanded in EBM-2 complete medium, until passage 2 or 3. The cells are trypsinized, washed in DMEM+10% FBS+antibiotics, and spun at 1000 rpm for 10 min. Prior to centrifugation of the cells, a small amount is collected for a cell count. After centrifugation, the medium is discarded, and the cells are resuspended in the appropriate volume of DMEM+10% FBS+antibiotics to achieve a concentration of 3×10^5 cells/mL. Another cell count is performed to confirm the cell concentration. The cells are diluted to 3×10^4 cells/mL in DMEM+10% FBS+antibiotics, and 100 μL of cells are added to a 96-well plate. The cells are incubated at 37° C. for 22 h.
# Prior to the completion of the incubation period, compound dilutions are prepared. Five-point, five-fold serial dilutions are prepared in DMSO, at concentrations 400-fold greater than the final concentrations desired. 2.5 μL of each compound dilution are diluted further in a total of 1 mL DMEM+10% FBS+antibiotics (400× dilution). Medium containing 0.25% DMSO is also prepared for the 0 μM compound sample. At the 22 h time point, the medium is removed from the cells, and 100 μL of each compound dilution is added. The cells are incubated at 37° C. for 2-3 h.
# During the compound pre-incubation period, the growth factors are diluted to the appropriate concentrations. Solutions of DMEM+10% FBS+antibiotics, containing either VEGF or bFGF at the following concentrations: 50, 10, 2, 0.4, 0.08, and 0 ng/mL are prepared. For the compound-treated cells, solutions of VEGF at 550 ng/mL or bFGF at 220 ng/mL for 50 ng/mL or 20 ng/mL final concentrations, respectively, are prepared since 10 μL of each will be added to the cells (110 μL final volume). At the appropriate time after adding the compounds, the growth factors are added. VEGF is added to one set of plates, while bFGF is added to another set of plates. For the growth factor control curves, the media on wells B4-G6 of plates 1 and 2 are replaced with media containing VEGF or bFGF at the varying concentrations (50-0 ng/mL). The cells are incubated at 37° C. for an additional 72 h.
# At the completion of the 72 h incubation period, the medium is removed, and the cells are washed twice with PBS. After the second wash with PBS, the plates are tapped gently to remove excess PBS, and the cells are placed at −70° C. for at least 30 min. The cells are thawed and analyzed using the CyQuant fluorescent dye (Molecular Probes C-7026), following the manufacturer's recommendations. The plates are read on a Victor/Wallac 1420 workstation at 485 nm/530 nm (excitation/emission). Raw data are collected and analyzed using a 4-parameter fit equation in XLFit. IC50 values are then determined.
row,SMILES,IC50 [µM]
1,O=C(Nc1ccc2c(c1)NCC21CC1)c1cccnc1NCc1ccnc2[nH]ccc12 [Example 8],< 0.5
2,"O=C(Nc1cccc(C(F)(F)F)c1)c1cc(F)cnc1NCc1ccnc2[nH]ncc12 [Example 122, 5-Fluoro-2-((1H-pyrazolo[3,4-b]pyridin-4-ylmethyl)amino)-N-(3-(trifluoromethyl)phenyl)-3-pyridinecarboxamide]",< 0.5
3,"CC1(C)CNCc2cc(NC(=O)c3cc(F)cnc3NCc3ccnc4[nH]ncc34)ccc21 [Example 129, N-(4,4-Dimethyl-1,2,3,4-tetrahydro-7-isoquinolinyl)-5-fluoro-2-((1H-pyrazolo[3,4-b]pyridin-4-ylmethyl)amino)-3-pyridinecarboxamide]",< 0.5
4,"O=C(Nc1cc(CCCN2CCCCC2)cc(C(F)(F)F)c1)c1cccnc1NCc1ccnc2[nH]ccc12 [Example 62, N-[3-(3-Piperidin-1-yl-propyl)-5-trifluoromethyl-phenyl]-2-[(1H-pyrrolo[2,3-b]pyridin-4-ylmethyl)-amino]-nicotinamide]",< 0.5
5,"O=C(Nc1ccc(Cl)c(C(F)(F)F)c1)c1cc(F)cnc1NCc1ccnc2[nH]ncc12 [Example 119, N-(4-Chloro-3-(trifluoromethyl)phenyl)-5-fluoro-2-((1H-pyrazolo[3,4-b]pyridin-4-ylmethyl)amino)-3-pyridinecarboxamide]",< 0.5
6,"O=C(Nc1cc(O[C@@H]2CCOC2)cc(C(F)(F)F)c1)c1cccnc1NCc1ccnc2[nH]ccc12 [Example 47, 2-[(1H-pyrrolo[2,3-b]pyridin-4-ylmethyl)amino]-N-[3-[(3R)-tetrahydrofuran-3-yloxy]-5-(trifluoromethyl)phenyl]nicotinamide]",< 0.5
7,"CC1(C)CNCc2cc(NC(=O)c3cc(F)cnc3NCc3ccnc4[nH]ccc34)ccc21 [Example 101, N-(4,4-dimethyl-1,2,3,4-tetrahydro-7-isoquinolinyl)-5-fluoro-2-((1H-pyrrolo[2,3-b]pyridin-4-ylmethyl)amino)-3-pyridinecarboxamide]",< 0.5
8,"O=C(Nc1ccc(C(OC[C@@H]2CCCN2)(C(F)(F)F)C(F)(F)F)cc1)c1cccnc1NCc1ccnc2[nH]ccc12 [Example 20, (S)-2-((1H-pyrrolo[2,3-b]pyridin-4-yl)methylamino)-N-(4-(1,1,1,3,3,3-hexafluoro-2-(pyrrolidin-2-ylmethoxy)propan-2-yl)phenyl)nicotinamide]",< 0.5
9,"Cc1nc2cc(NC(=O)c3cc(F)cnc3NCc3ccnc4c3CCN4)ccc2s1 [Example 115, 2-((2,3-dihydro-1H-pyrrolo[2,3-b]pyridin-4-ylmethyl)amino)-5-fluoro-N-(2-methyl-1,3-benzothiazol-5-yl)-3-pyridinecarboxamide]",< 0.5
10,"O=C(Nc1ccc(C(F)(F)F)c(F)c1)c1cc(F)cnc1NCc1ccnc2[nH]ncc12 [Example 128, 5-Fluoro-N-(3-fluoro-4-(trifluoromethyl)phenyl)-2-((1H-pyrazolo[3,4-b]pyridin-4-ylmethyl)amino)-3-pyridinecarboxamide]",< 0.5
11,"CN1CCC[C@H]1COc1cc(NC(=O)c2cccnc2NCc2ccnc3[nH]ccc23)cc(C(F)(F)F)c1 [Example 35, N-[3-{[(2S)-1-methylpyrrolidin-2-yl]methoxy}-5-(trifluoromethyl)phenyl]-2-[(1H-pyrrolo[2,3-b]pyridin-4-ylmethyl)amino]nicotinamide]",< 0.5
12,"O=C(Nc1ccc2ccncc2c1)c1cccnc1NCc1ccnc2[nH]ccc12 [Example 55, N-Isoquinolin-7-yl-2-[(1H-pyrrolo[2,3-b]pyridin-4-ylmethyl)-amino]-nicotinamide]",< 0.5
13,"CC1(C)CCNc2cc(NC(=O)c3cccnc3NCc3ccnc4c3CC(=O)N4)ccc21 [Example 73, N-(4,4-Dimethyl-1,2,3,4-tetrahydro-quinolin-7-yl)-2-[(2-oxo-2,3-dihydro-1H-pyrrolo[2,3-b]pyridin-4-ylmethyl)-amino]-nicotinamide]",< 0.5
